# Source: patent publication EP1353624B1, “PHARMACEUTICAL COMPOSITIONS OF A NON-ENTERIC COATED PROTON PUMP INHIBITOR WITH A CARBONATE SALT AND BICARBONATE SALT COMBINATION” (TAP Pharmaceutical Products, Inc., priority 2000, dated 2002)
# Several values for one entry are separate records, joined by “and”; a condition that tells them apart may be missing. Equal entries are not always repeated. Where two headings read alike, the source gives them in different places.
# Columns and labels:
# [1] = Excerpt: To quantify the gas produced by the neutralization of simulated gastric fluid (SGF) by carbicarb and by sodium bicarbonate in vitro, a standard CO2 assay technique was utilized (see USP 24 -NF 19 Beta, The United States Pharmacopeia 2000, p. 306)
# (§1) Aqueous solutions to be tested were made up from starting materials sodium carbonate, (anhydrous, available from Mallinckrodt) and sodium bicarbonate (available from Mallinckrodt). An 8.4% sodium bicarbonate solution and an 8.4% carbicarb solution (containing equimolar amounts of sodium bicarbonate and sodium carbonate) were tested as follows.
# The specimen gas was generated by reacting either 450 mL simulated gastric fluid (SGF) with 50 mL of the carbicarb solution; or by reacting 45 ml of simulated gastric fluid with 5 ml of sodium bicarbonate solution in a 500 mL Erlenmeyer flask.
# To make Simulated Gastric Fluid (SGF) 1 g sodium chloride was transferred to a 500-mL volumetric flask. After adding 1.6 g pepsin, 25 mL 2 N hydrochloric acid was added and swirled to mix. The resultant solution could then be diluted to the appropriate volume with water.
# The amount of gas generated in a twenty-minute time period was measured in an Orsat Glass Vapor Absorption Apparatus, by the standard assay technique. Two tests were run for each solution. The volume of CO2 generated was calculated from the difference in the initial volume of gas produced (ml) and the final volume of gas remaining (ml).
# [2] = 50 mL SGF
# Procedure: To determine and compare the gastric acid neutralizing capacity of sodium bicarbonate solution to carbicarb solution, the following experiment was performed.
# as §1
# 50 mL simulated gastric fluid (SGF, prepared according to the procedure described in Example 1) was pipetted into an Erlenmeyer flask. Four drops of methyl red, then four drops of phenolphthalein were then added to the flask. The pH of solution was monitored with a pH electrode. The solution to be tested was added to a 5-mL buret. The gastric media in the flask was then titrated with the test solution to an endpoint within 0.2 pH units of pH 6.5 (as indicated by the color change and pH reading). Then, titration was resumed, to an endpoint within 0.2 pH units of pH 8.0 (as indicated by the color change and pH reading).
# [3] = Stability of lansoprazole in simulated gastric fluid (chromatographic assay); format: physicochemical; details: for % labeled amount of lansoprazole remaining: room temperature; for drug degraded: at 60 minutes in SGF
# Procedure: Lansoprazole degrades in acid and is stable in base. This study was performed to determine 1) how quickly lansoprazole degrades in simulated gastric fluid (SGF); and 2) whether a high pH-buffering agent (carbicarb which is an equimolar mixture of sodium carbonate and sodium bicarbonate) could be used to retard the degradation of lansoprazole in SGF. All the experiments were conducted at room temperature (22°C ± 2°C).
# The PPI test sample included lansoprazole (30 mg); mannitol (60 mg), meglumine (30 mg) and sodium hydroxide (3 mg).
# Then 5.0 mL 2 N sodium hydroxide solution was added to the 0-minutes beaker with mixing. To each of the 5 remaining beakers, 10.0 mL of 8.4% carbicarb solution was added and stirred to mix. At the appropriate time interval (corresponding to the individual beaker numbers), 5.0 mL 2 N sodium hydroxide solution was added to stop the reaction. A portion of the resulting solution was diluted with pH 10 diluent. 10 µL of the resulting solution was then injected into the chromatographic system for assay.
# Granular formulations of lansoprazole, including carbicarb were also made and tested. The stability of the granular formulations was tested according to the procedure of Example 3. The granular formulations of lansoprazole for this example were prepared as follows.
# The coherent mass containing lansoprazole, carbicarb, lactose and sucrose solution was prepared as described above, in Example 3. This coherent mass was passed through a 20-mesh screen and the resulting granules were dried at 50°C for 12 hours. Granules containing 30-mg lansoprazole were transferred to an amber color container along with and an equal weight of flavor granules. 10 ml of water ((HPLC grade, Fisher Scientific, Pittsburgh, PA) was added to the container with gentle shaking to reconstitute the suspension. The resulting suspension of Lansoprazole was tested for stability in simulated gastric fluid as described earlier in Experiment 3.
# [4] = Storage stability of granules (potency and related substances); format: physicochemical; details: granules of Examples 4 and 5; 22°C for 21 days in closed containers
# Procedure: Additionally, the granules prepared in Examples 4 and 5 were kept at 22°C for 21 days in closed containers.
# [5] = 45 mL SGF and 5 mL test solution, gas generated in twenty minutes
# [6] = 450 mL SGF and 50 mL test solution, ten-fold scale-up of the 45 mL/5 mL run
compound,measurement,setting,value
"O=C([O-])O.[Na+] [8.4% sodium bicarbonate solution, sodium bicarbonate]",Volume of CO2,"[1]; 45 mL SGF and 5 mL test solution, difference of initial and residual gas volume",2.9 mL and 5.3 mL
same,Initial Gas Volume,[1]; [5],93.0 mL and 82.0 mL
same,Residual Gas Volume,[1]; [5],90.1 mL and 76.7 mL
same,Initial Gas Volume,[1]; [6],930.0 mL and 820.0 mL
same,Residual Gas Volume,[1]; [6],901.0 mL and 767.0 mL
same,Volume of CO2,[1]; [6],29.0 mL and 53.0 mL
same,Volume of Acid Neutralizer Solution Required,[2]; pH of simulated gastric fluid after adding neutralizer 1.2,0 mL
same,Volume of Acid Neutralizer Solution Required,[2]; pH of simulated gastric fluid after adding neutralizer 2.0,3.47 mL
same,Volume of Acid Neutralizer Solution Required,[2]; pH of simulated gastric fluid after adding neutralizer 3.0,4.09 mL
same,Volume of Acid Neutralizer Solution Required,[2]; pH of simulated gastric fluid after adding neutralizer 4.0,4.19 mL
same,Volume of Acid Neutralizer Solution Required,[2]; pH of simulated gastric fluid after adding neutralizer 5.0,4.27 mL
same,Volume of Acid Neutralizer Solution Required,[2]; pH of simulated gastric fluid after adding neutralizer 6.0,4.48 mL
same,Volume of Acid Neutralizer Solution Required,[2]; pH of simulated gastric fluid after adding neutralizer 7.0,5.00 mL
same,Volume of Acid Neutralizer Solution Required,[2]; pH of simulated gastric fluid after adding neutralizer 8.0,6.20 mL
same,volume added into the gastric media to reach the endpoint,"[2]; titration endpoint (pH not given; method: pH 6.5, then pH 8.0)",4.71 mL
Cc1c(OCC(F)(F)F)ccnc1C[S+]([O-])c1nc2ccccc2[nH]1 (stereo not shown) [lansoprazole],% labeled amount of lansoprazole remaining,"[3]; Sample in carbicarb solution, time in SGF 0 minutes",98.0%
same,% labeled amount of lansoprazole remaining,"[3]; Sample in carbicarb solution, time in SGF 5 minutes",96.7%
same,% labeled amount of lansoprazole remaining,"[3]; Sample in carbicarb solution, time in SGF 15 minutes",97.4%
same,% labeled amount of lansoprazole remaining,"[3]; Sample in carbicarb solution, time in SGF 30 minutes",95.8%
same,% labeled amount of lansoprazole remaining,"[3]; Sample in carbicarb solution, time in SGF 45 minutes",94.4%
same,% labeled amount of lansoprazole remaining,"[3]; Sample in carbicarb solution, time in SGF 60 minutes",96.5%
same,% labeled amount of lansoprazole remaining,"[3]; Sample in water, time in SGF 0 minutes",99.5%
same,% labeled amount of lansoprazole remaining,"[3]; Sample in water, time in SGF 5 minutes",39.9%
same,% labeled amount of lansoprazole remaining,"[3]; Sample in water, time in SGF 15 minutes",10.1%
same,% labeled amount of lansoprazole remaining,"[3]; Sample in water, time in SGF 30 minutes",4.1%
same,% labeled amount of lansoprazole remaining,"[3]; Sample in water, time in SGF 45 minutes",2.7%
same,% labeled amount of lansoprazole remaining,"[3]; Sample in water, time in SGF 60 minutes",2.0%
same,time stable in simulated gastric fluid,[3]; administered with carbicarb into SGF,at least 60 minutes
same,degradation,"[3]; administered with carbicarb into SGF, 60 minutes",< 5%
same,drug degraded,[3]; drug constituted with carbicarb solution,3.5%
same,drug degraded,[3]; drug reconstituted with water,98%
same,time stable in simulated gastric fluid,[3]; formulated with carbicarb as granules (Example 4),at least 60 minutes
same,time stable in simulated gastric fluid,[3]; suspension reconstituted from lansoprazole/carbicarb granules (Example 5),at least 60 minutes
same,stability on storage (potency and related substances),[4],stable
